Values joined by “and” are separate entries in the source; they are usually repeats but may differ in a detail not shown here. Equal values may be shown once.
Experiments:
hP2RY1 [1] = target: T1, hP2RY1 (Homo sapiens, UniProt P47900); test: Glucose transport analysis in L6 myotubes over-expressing hP2RY1 (adenovirus); assay type: cell-based
T1 construct: expressed in transfected cells; host or cells: differentiated murine 3T3-L1 adipocytes (A2) or differentiated L6 myotubes (A4), infected with recombinant adenovirus
T1 sequence (P47900 whole entry): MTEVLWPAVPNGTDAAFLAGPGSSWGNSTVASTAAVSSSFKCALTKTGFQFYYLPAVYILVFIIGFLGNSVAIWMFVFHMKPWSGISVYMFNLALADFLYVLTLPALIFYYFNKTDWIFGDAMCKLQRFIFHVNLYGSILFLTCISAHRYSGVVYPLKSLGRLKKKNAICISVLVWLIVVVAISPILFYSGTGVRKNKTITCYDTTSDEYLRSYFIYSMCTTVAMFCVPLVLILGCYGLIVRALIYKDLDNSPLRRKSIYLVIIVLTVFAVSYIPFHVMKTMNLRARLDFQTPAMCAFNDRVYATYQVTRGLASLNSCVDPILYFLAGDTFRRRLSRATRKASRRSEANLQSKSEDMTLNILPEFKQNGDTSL
Protocol: (§1) In some instances another analysis called “glucose transport” was used. This involves over-expressing the gene in either differentiated 3T3-L1 adipocytes or differentiated L6 myotubes and then monitoring the ability of insulin to stimulate glucose transport into these two cell types. A recombinant adenovirus encoding the human gene tagged with a FLAG epitope tag was prepared essentially as described in Zhou et al., Proc. Nat. Acad. Sci. USA. 95:2509-2514 (1998). 3T3-L1 adipocytes or L6 myotubes were infected with recombinant adenovirus expressing the human gene. A virus expressing an irrelevant protein was used as the control. Twenty four hours post infection the cells are stimulated with increasing concentrations of insulin and glucose transport into the cells determined by the counting the accumulation of a radiolabelled glucose analog (2-deoxyglucose) essentially as described in Kotani et al., Mol. Cell. Biol. 18:6971-6982 (1998), Fujishiro et al., J. Biol. Chem. 276:19800-19806 (2001), Ross et al., Biochem. Biophys. Res. Commun. 302:354-358 (2003)

hP2RY1 [2] = target: T1, hP2RY1; test: Glucose transport analysis in 3T3-L1 adipocytes over-expressing hP2RY1 (adenovirus); assay type: cell-based
Protocol: as §1

3T3-L1 adipocytes = test: Glucose transport analysis in 3T3-L1 adipocytes (2-deoxyglucose uptake), cells not expressing hP2RY1; assay type: cell-based, murine; details: basal glucose transport (no insulin), 2-MeSADP 1 μM for 6 hours, mean of 5 experiments
Protocol: as §1

L6 myotubes = test: Glucose transport analysis in L6 myotubes (2-deoxyglucose uptake), cells not expressing hP2RY1; assay type: cell-based; details: basal glucose transport (no insulin), 2-MeSADP 1 μM for 6 hours
Protocol: as §1

SMILES: CSc1nc(N)c2ncn([C@@H]3O[C@H](COP(=O)(O)OP(=O)(O)O)[C@@H](O)[C@H]3O)c2n1 [2-MeSADP]
- basal glucose transport, result in words (hP2RY1 [1]; L6 myotubes with or without hP2RY1): can be stimulated by a P2RY1 agonist but only when the hP2RY1 is expressed in the cells
- Fold Change 2 (Basal plus P2RY1 plus 2-MeSADP)/(Basal no P2RY1 no 2-MeSADP), Mean (n = 2) (hP2RY1 [1]; basal glucose transport (no insulin), hP2RY1-expressing L6 myotubes, 2-MeSADP 1 μM for 6 hours, mean of 2 experiments): 1.81
- Fold Change 2 (Basal plus P2RY1 plus 2-MeSADP)/(Basal no P2RY1 no 2-MeSADP) (hP2RY1 [1]; basal glucose transport (no insulin), hP2RY1-expressing L6 myotubes, 2-MeSADP 1 μM for 6 hours, single experiments): 1.71 and 1.91
- basal glucose transport, result in words (hP2RY1 [2]; 3T3-L1 adipocytes with or without hP2RY1): can be stimulated by a P2RY1 agonist but only when the hP2RY1 is expressed in the cells
- Fold Change 2 (Basal plus P2RY1 plus 2-MeSADP)/(Basal no P2RY1 no 2-MeSADP), Mean +/− SEM (n = 5) (hP2RY1 [2]; basal glucose transport (no insulin), hP2RY1-expressing 3T3-L1 adipocytes, 2-MeSADP 1 μM for 6 hours, mean of 5 experiments): 2.11 +/− 0.34
- Fold Change 1 (Basal plus 2-MeSADP)/(Basal no 2-MeSADP), Mean +/− SEM (n = 5) (3T3-L1 adipocytes): 1.07 +/− 0.13
- Fold Change 1 (Basal plus 2-MeSADP)/(Basal no 2-MeSADP), Mean (n = 2) (L6 myotubes; mean of 2 experiments): 0.97
- Fold Change 1 (Basal plus 2-MeSADP)/(Basal no 2-MeSADP) (L6 myotubes; single experiments): 0.99 and 0.95

Source: patent publication US20060228706A1, “Methods of diagnosing and treating diabetes and insulin resistance” (Metabolex, Inc., priority 2002, published 2006)
